From ChEMBL document CHEMBL1133873, “Highly potent growth hormone secretagogues: hybrids of NN703 and ipamorelin” (Bioorg Med Chem Lett, 2001) come the findings set out here.

Where a SMILES comes first, the peptide text is derived from it. [ ]: non-standard residue; d: D form. d2Nal = N[C@H](Cc1ccc2ccccc2c1)C(=O)O; Aib = CC(C)(N)C(=O)O

Test [1] relates to Sus scrofa. The test is described as follows: Release of growth hormone at single iv dose of 50 nmol/kg in pigs. Type of test: functional.
The species entered for test [2] is Rattus norvegicus. Kind of test: Concentration required for GH release from isolated pituitary cells of rat tested in vitro. Type of test: functional, cell-based. The note with it: Pituitary gland cell.
The species entered for test [3] is Rattus norvegicus. Kind of test: Efficacy was determined as percent of GHRP-6 in rat pituitary cell assay tested in vitro. The following applies: Pituitary gland cell. Type of test: functional.
Test [4] has as its system Sus scrofa. Kind of test: Effective dose required for release of GH from pigs in vivo. In kind it is functional.

Consider `CC(=O)NCCCCCNC(=O)[C@H](Cc1ccccc1)N(C)C(=O)[C@H](Cc1ccc2ccccc2c1)N(C)C(=O)/C=C/CC(C)(C)N`, for which, in test [1], the GHmax was 26 ng/mL. In addition, the midpoint of the response in test [2], the EC50, lay at 10 nM. The same compound had an Emax in test [3] of 110%.

Consider `CN(C)CCCN(C)C(=O)[C@H](Cc1ccccc1)N(C)C(=O)[C@H](Cc1ccc2ccccc2c1)N(C)C(=O)/C=C/CC(C)(C)N`, for which the GHmax in test [1] came to 45 ng/mL. The same compound had an EC50 in test [2] of 2 nM. This compound also gave an Emax in test [3] of 105%.

For the compound `CN(C)C(=O)CCCN(C)C(=O)[C@H](Cc1ccccc1)N(C)C(=O)[C@H](Cc1ccc2ccccc2c1)N(C)C(=O)/C=C/CC(C)(C)N`, in test [1], the GHmax was found to be 21 ng/mL. In addition, a half-maximal response in test [2] (EC50) required 21 nM. Moreover, in test [3], the Emax amounted to 105%.

The compound `CCNC(=O)NCCCCCNC(=O)[C@H](Cc1ccccc1)N(C)C(=O)[C@H](Cc1ccc2ccccc2c1)N(C)C(=O)/C=C/CC(C)(C)N` returned a GHmax in test [1] of 8 ng/mL. In test [2], this compound yielded an EC50 of 14 nM. In test [3], this compound returned a maximal response (Emax) of 95%.

As for `CN(C(=O)/C=C/CC(C)(C)N)[C@@H](Cc1ccc2ccccc2c1)C(=O)N(C)[C@@H](Cc1ccccc1)C(=O)N[C@@H](CCCCN)C(N)=O`, the GHmax in test [1] came to 76 ng/mL. Also, in test [2], the EC50 came to 1.8 nM. In test [3], this compound came in with an Emax of 105%.

As to `CN(C)C(=O)[C@H](CCCCN)NC(=O)[C@H](Cc1ccccc1)N(C)C(=O)[C@H](Cc1ccc(-c2ccccc2)cc1)N(C)C(=O)/C=C/CC(C)(C)N`, the GHmax in test [1] turned out to be 116 ng/mL. The EC50 in test [2] turned out to be 0.15 nM. Besides, in test [3], the Emax was determined as 110%.

With `CN(C(=O)/C=C/CC(C)(C)N)[C@@H](Cc1ccc(-c2ccccc2)cc1)C(=O)N(C)[C@@H](Cc1ccccc1)C(=O)NCCCN`, the GHmax in test [1] was determined as 25 ng/mL. In test [2], this compound gave an EC50 of 6 nM. The Emax in test [3] was found to be 130%.

In turn, `CN(C(=O)/C=C/CC(C)(C)N)[C@@H](Cc1ccc(-c2ccccc2)cc1)C(=O)N(C)[C@@H](Cc1ccccc1)C(=O)NCCCCCCN` had a GHmax in test [1] of 80 ng/mL. The same compound had an EC50 in test [2] of 1 nM. The compound further returned an Emax in test [3] of 130%.

On to `CN(C(=O)/C=C/CC(C)(C)N)[C@@H](Cc1ccc(-c2ccccc2)cc1)C(=O)N(C)[C@@H](Cc1ccccc1)C(=O)NCCN`, for which the GHmax in test [1] is 62 ng/mL. The compound also registered an EC50 in test [2] of 5 nM. In test [3], this compound yielded an Emax of 90%.

`CN(C(=O)/C=C/CC(C)(C)N)[C@@H](Cc1ccc2ccccc2c1)C(=O)N(C)[C@@H](Cc1ccccc1)C(=O)NCCCCCN=C(N)N` showed a GHmax in test [1] of 49 ng/mL. Besides, the EC50 in test [2] is 17 nM. Also, the Emax in test [3] was found to be 140%.

On to `CN(C(=O)/C=C/CC(C)(C)N)[C@@H](Cc1ccc(-c2ccccc2)cc1)C(=O)N(C)[C@@H](Cc1ccccc1)C(=O)NCCCCN`, for which the GHmax in test [1] worked out at 91 ng/mL. This compound displayed an EC50 in test [2] of 1 nM. The compound also returned an Emax in test [3] of 110%.

Consider `CN(C)C(=O)CN(C)C(=O)[C@H](Cc1ccccc1)N(C)C(=O)[C@H](Cc1ccc2ccccc2c1)N(C)C(=O)/C=C/CC(C)(C)N`, for which, in test [1], the GHmax was found to be 48 ng/mL. The same compound yielded an EC50 in test [2] of 10 nM. For the same compound, the Emax in test [3] stood at 105%.

`CNC(=O)CCCN(C)C(=O)[C@H](Cc1ccccc1)N(C)C(=O)[C@H](Cc1ccc2ccccc2c1)N(C)C(=O)/C=C/CC(C)(C)N` displayed a GHmax in test [1] of 32 ng/mL. The EC50 in test [2] came to 30 nM. This compound also showed an Emax in test [3] of 100%.

The compound `CN(C)C(=O)[C@H](CCCCN)NC(=O)[C@H](Cc1ccccc1)N(C)C(=O)[C@H](Cc1ccc2ccccc2c1)N(C)C(=O)/C=C/CC(C)(C)N` registered a GHmax in test [1] of 105 ng/mL. Further, the EC50 in test [2] turned out to be 0.3 nM. In test [3], the Emax came to 130%.

The compound `CN(C)CCCN(C)C(=O)[C@H](Cc1ccccc1)N(C)C(=O)[C@H](Cc1ccc(-c2ccccc2)cc1)N(C)C(=O)/C=C/CC(C)(C)N` displayed a GHmax in test [1] of 50 ng/mL. Also, the midpoint of the response in test [2], the EC50, lay at 4 nM. In test [3], this compound had an Emax of 95%.

Turning to `CC(C)(N)C(=O)N[C@H](COCc1ccccc1)C(=O)N1CCC2(CC1)CN(S(C)(=O)=O)c1ccccc12` [IBUTAMOREN], the GHmax in test [1] worked out at 60 ng/mL. This compound also yielded an ED50 in test [4] of 0.084 µmol/kg. The compound further displayed an EC50 in test [2] of 0.6 nM. In addition, the Emax in test [3] turned out to be 115%.

The compound `CC(C)(N)C(=O)N[C@@H](Cc1c[nH]cn1)C(=O)N[C@H](Cc1ccc2ccccc2c1)C(=O)N[C@H](Cc1ccccc1)C(=O)N[C@@H](CCCCN)C(N)=O` [IPAMORELIN] (H-[Aib]H[d2Nal][dF]K-NH2) had a GHmax in test [1] of 54 ng/mL. The compound also registered a median effective dose (ED50) in test [4] of 0.0023 µmol/kg. Also, the Emax in test [3] is 85%.
